Experimental data reported in ChEMBL document CHEMBL1201862, “PubChem BioAssay data set” (2004).
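Grown in 96-well plates, cells were treated for 48 hours with each compound at five concentrations. Insufficient inhibition: endpoint recorded as highest concentration tested. Abbreviation: GI50, concentration required for 50% inhibition of growth.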 Activity calls are given as the source filed them. Cut-off read from the data, not from the text of the source: active = GI50 up to about 1.1 µM and inactive = higher.

Legend:
Test in all cases: growth of human tumour cells (NCI), 48 h
HOP-92 = test system: HOP-92
PC-3 = test system: PC-3
SK-MEL-28 = test system: SK-MEL-28
CCRF-CEM = test system: CCRF-CEM
A549 = test system: A549
SF-268 = test system: SF-268
MDA-N = test system: MDA-N
MDA-MB-435 = test system: MDA-MB-435
NCI/ADR-RES = test system: NCI/ADR-RES
NCI-H23 = test system: NCI-H23
TK-10 = test system: TK-10
HT-29 = test system: HT-29
SN12C = test system: SN12C
OVCAR-3 = test system: OVCAR-3
SR = test system: SR
HL-60 = test system: HL-60
UACC-62 = test system: UACC-62
SNB-19 = test system: SNB-19
ACHN = test system: ACHN
M14 = test system: M14
SW-620 = test system: SW-620
SK-MEL-2 = test system: SK-MEL-2
NCI-H522 = test system: NCI-H522
SF-295 = test system: SF-295
A498 = test system: A498
SK-MEL-5 = test system: SK-MEL-5
SNB-75 = test system: SNB-75
MCF7 = test system: MCF7
MDA-MB-231 = test system: MDA-MB-231
BT-549 = test system: BT-549
786-0 = test system: 786-0
KM12 = test system: KM12
SF-539 = test system: SF-539
U-251 = test system: U-251
HCT-15 = test system: HCT-15
SK-OV-3 = test system: SK-OV-3
RPMI-8226 = test system: RPMI-8226
COLO 205 = test system: COLO 205
OVCAR-8 = test system: OVCAR-8
K562 = test system: K562
T47D = test system: T47D
UACC-257 = test system: UACC-257
HCC 2998 = test system: HCC 2998
OVCAR-5 = test system: OVCAR-5
Malme-3M = test system: Malme-3M
UO-31 = test system: UO-31
IGROV-1 = test system: IGROV-1
CAKI-1 = test system: CAKI-1
RXF 393 = test system: RXF 393
DU-145 = test system: DU-145
LOX IMVI = test system: LOX IMVI
EKVX = test system: EKVX
MOLT-4 = test system: MOLT-4
HCT-116 = test system: HCT-116
Hs-578T = test system: Hs-578T
NCI-H460 = test system: NCI-H460
HOP-62 = test system: HOP-62

Compound: CC(C)(C)OC(=O)NC(Cc1ccc(OCc2ccccc2)cn1)C(=O)N1CCSCC1 (configuration not stated)
- GI50 (HOP-92): 47.4 µM (inactive)
- GI50 (PC-3): 31.4 µM (inactive)
- GI50 (SK-MEL-28): 78.7 µM (inactive)
- GI50 (CCRF-CEM): 29.9 µM (inactive)
- GI50 (A549): 56.4 µM (inactive)
- GI50 (SF-268): 65.3 µM (inactive)
- GI50 (MDA-N): 40.8 µM (inactive)
- GI50 (MDA-MB-435): 28.6 µM (inactive)
- GI50 (NCI/ADR-RES): 27.7 µM (inactive)
- GI50 (NCI-H23): 28.6 µM (inactive)
- GI50 (TK-10): 47.3 µM (inactive)
- GI50 (HT-29): 32.7 µM (inactive)
- GI50 (SN12C): 44.6 µM (inactive)
- GI50 (OVCAR-3): 62.2 µM (inactive)
- GI50 (SR): 27 µM (inactive)
- GI50 (HL-60): 16.4 µM (inactive)
- GI50 (UACC-62): 52.5 µM (inactive)
- GI50 (SNB-19): > 100 µM (inactive)
- GI50 (ACHN): 57.3 µM (inactive)
- GI50 (M14): 54.8 µM (inactive)
- GI50 (SW-620): 81.7 µM (inactive)
- GI50 (SK-MEL-2): 38.7 µM (inactive)
- GI50 (NCI-H522): 32.9 µM (inactive)
- GI50 (SF-295): 37.2 µM (inactive)
- GI50 (A498): 45.4 µM (inactive)
- GI50 (SK-MEL-5): 16.3 µM (inactive)
- GI50 (SNB-75): 24 µM (inactive)
- GI50 (MCF7): 38.3 µM (inactive)
- GI50 (MDA-MB-231): > 100 µM (inactive)
- GI50 (BT-549): 27.9 µM (inactive)
- GI50 (786-0): 57.9 µM (inactive)
- GI50 (KM12): 36.4 µM (inactive)
- GI50 (SF-539): 49 µM (inactive)
- GI50 (U-251): 74.3 µM (inactive)
- GI50 (HCT-15): 46.7 µM
- GI50 (SK-OV-3): 86.3 µM (inactive)
- GI50 (RPMI-8226): 21.7 µM (inactive)
- GI50 (COLO 205): 18.6 µM (inactive)
- GI50 (OVCAR-8): 40.1 µM (inactive)
- GI50 (K562): 31.7 µM (inactive)
- GI50 (T47D): 20.8 µM (inactive)
- GI50 (UACC-257): 26.4 µM (inactive)
- GI50 (HCC 2998): 57.8 µM (inactive)
- GI50 (OVCAR-5): 93.1 µM (inactive)
- GI50 (Malme-3M): 46.5 µM (inactive)
- GI50 (UO-31): 50.6 µM (inactive)
- GI50 (IGROV-1): 75.9 µM (inactive)
- GI50 (CAKI-1): 73.3 µM (inactive)
- GI50 (RXF 393): 33.3 µM (inactive)
- GI50 (DU-145): 51.9 µM (inactive)
- GI50 (LOX IMVI): 28.3 µM (inactive)
- GI50 (EKVX): 41.6 µM (inactive)
- GI50 (MOLT-4): 22.9 µM (inactive)
- GI50 (HCT-116): 48.6 µM (inactive)
- GI50 (Hs-578T): 77.3 µM (inactive)
- GI50 (NCI-H460): 38 µM (inactive)
- GI50 (HOP-62): > 100 µM (inactive)
